Experimental data reported in ChEMBL document CHEMBL1147725, “Identification and biological characterization of 6-aryl-7-isopropylquinazolinones as novel TRPV1 antagonists that are effective in models of chronic pain” (J Med Chem, 2006).
Converted amounts (≈) assume the structure as drawn.

What was measured:
[1] = Tmax in rat brain at 1 mg/kg, iv; assay type: ADME, organism-based; parameters: dose 1 mg/kg, route intravenous; conditions: Wistar Han
[2] = Oral Bioavailability in rat at 3mg/kg; assay type: ADME, organism-based; conditions: Wistar Han, in vivo
[3] = molecular target: Transient receptor potential cation channel subfamily V member 1 (Rattus norvegicus) (UniProt O35433); test: Effect on capsaicin induced mechanical hyperalgesia in rat; assay type: functional
Sequence of Transient receptor potential cation channel subfamily V member 1 (Rattus norvegicus) (O35433 whole entry): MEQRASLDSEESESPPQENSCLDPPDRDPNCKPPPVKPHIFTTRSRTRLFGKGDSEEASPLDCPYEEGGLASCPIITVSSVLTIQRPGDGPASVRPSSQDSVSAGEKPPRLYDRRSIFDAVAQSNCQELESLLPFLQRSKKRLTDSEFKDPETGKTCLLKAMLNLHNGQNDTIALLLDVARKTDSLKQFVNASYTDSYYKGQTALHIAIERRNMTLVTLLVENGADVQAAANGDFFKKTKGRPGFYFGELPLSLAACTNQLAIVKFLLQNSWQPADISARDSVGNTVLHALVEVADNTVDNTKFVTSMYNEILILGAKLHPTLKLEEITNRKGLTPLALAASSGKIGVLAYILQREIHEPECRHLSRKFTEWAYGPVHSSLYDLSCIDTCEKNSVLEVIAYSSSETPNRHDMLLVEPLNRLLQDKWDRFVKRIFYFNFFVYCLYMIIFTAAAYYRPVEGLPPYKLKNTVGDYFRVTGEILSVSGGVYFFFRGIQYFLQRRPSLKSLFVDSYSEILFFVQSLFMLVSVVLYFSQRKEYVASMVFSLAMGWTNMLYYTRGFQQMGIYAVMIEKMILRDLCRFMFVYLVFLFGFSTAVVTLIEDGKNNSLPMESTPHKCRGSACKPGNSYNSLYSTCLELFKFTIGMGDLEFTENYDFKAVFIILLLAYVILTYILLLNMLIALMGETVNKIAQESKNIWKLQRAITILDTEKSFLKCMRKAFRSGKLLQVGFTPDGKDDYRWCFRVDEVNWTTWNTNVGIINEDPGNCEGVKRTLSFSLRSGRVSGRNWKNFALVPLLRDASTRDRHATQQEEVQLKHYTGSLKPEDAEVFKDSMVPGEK

[4] = Plasma concentration in rat at 10 mg/kg, po after 6 hrs; assay type: ADME, organism-based; parameters: dose 10 mg/kg, route oral; conditions: Wistar Han
[5] = tested on: Rattus norvegicus; test: Concentration in rat brain at 1 mg/kg, iv after 1.5 hrs; assay type: ADME, organism-based, Wistar Han; parameters: dose 1 mg/kg, route intravenous; conditions: in vivo
[6] = Plasma concentration in rat at 1 mg/kg, iv after 0.16 hrs; assay type: ADME, organism-based; parameters: dose 1 mg/kg, route intravenous; conditions: Wistar Han
[7] = tested on: Rattus norvegicus; test: Concentration in rat brain at 10 mg/kg, po after 18 hrs; assay type: ADME, organism-based, Wistar Han; parameters: dose 10 mg/kg, route oral; conditions: in vivo
[8] = Plasma concentration in rat at 3 mg/kg, po after 0.5 hrs; assay type: ADME, organism-based; parameters: dose 3 mg/kg, route oral; conditions: Wistar Han
[9] = Terminal half life in rat at 3 mg/kg, po; assay type: ADME, organism-based; parameters: dose 3 mg/kg, route oral; conditions: Wistar Han, in vivo, read-out: beta t1/2 (converted)
[10] = tested on: Rattus norvegicus; test: Concentration in rat brain at 1 mg/kg, iv after 6 hrs; assay type: ADME, organism-based, Wistar Han; parameters: dose 1 mg/kg, route intravenous; conditions: in vivo
[11] = Permeability across Caco-2 cell membrane; assay type: ADME, cell-based; conditions: human, read-out: permeability (converted)
[12] = tested on: Rattus norvegicus; test: Concentration in rat brain at 3 mg/kg, po after 1.5 hrs; assay type: ADME, organism-based, Wistar Han; parameters: dose 3 mg/kg, route oral; conditions: in vivo
[13] = molecular target: Transient receptor potential cation channel subfamily V member 1 (Rattus norvegicus) (UniProt O35433); test: Effect on neuropathic mechanical hyperalgesia in rat at 1 hr; assay type: functional
[14] = tested on: Rattus norvegicus; test: Concentration in rat brain at 10 mg/kg, po after 24 hrs; assay type: ADME, organism-based, Wistar Han; parameters: dose 10 mg/kg, route oral; conditions: in vivo
[15] = Plasma concentration in rat at 3 mg/kg, po after 24 hrs; assay type: ADME, organism-based; parameters: dose 3 mg/kg, route oral; conditions: Wistar Han
[16] = tested on: Rattus norvegicus; test: Concentration in rat brain at 3 mg/kg, po after 6 hrs; assay type: ADME, organism-based, Wistar Han; parameters: dose 3 mg/kg, route oral; conditions: in vivo
[17] = tested on: Rattus norvegicus; test: Concentration in rat brain at 10 mg/kg, po after 6 hrs; assay type: ADME, organism-based, Wistar Han; parameters: dose 10 mg/kg, route oral; conditions: in vivo
[18] = Plasma concentration in rat at 3 mg/kg, po after 1 hrs; assay type: ADME, organism-based; parameters: dose 3 mg/kg, route oral; conditions: Wistar Han
[19] = tested on: Rattus norvegicus; test: Concentration in rat brain at 3 mg/kg, po after 2 hrs; assay type: ADME, organism-based, Wistar Han; parameters: dose 3 mg/kg, route oral; conditions: in vivo
[20] = Plasma concentration in rat at 1 mg/kg, iv after 1 hrs; assay type: ADME, organism-based; parameters: dose 1 mg/kg, route intravenous; conditions: Wistar Han
[21] = Plasma concentration in rat at 3 mg/kg, po after 4 hrs; assay type: ADME, organism-based; parameters: dose 3 mg/kg, route oral; conditions: Wistar Han
[22] = Tmax in rat brain at 3 mg/kg, po; assay type: ADME, organism-based; parameters: dose 3 mg/kg, route oral; conditions: Wistar Han
[23] = tested on: Rattus norvegicus; test: Concentration in rat brain at 3 mg/kg, po after 0.5 hrs; assay type: ADME, organism-based, Wistar Han; parameters: dose 3 mg/kg, route oral; conditions: in vivo
[24] = Tmax in rat plasma at 3 mg/kg, po; assay type: ADME, organism-based; parameters: dose 3 mg/kg, route oral; conditions: Wistar Han
[25] = Plasma concentration in rat at 10 mg/kg, po after 24 hrs; assay type: ADME, organism-based; parameters: dose 10 mg/kg, route oral; conditions: Wistar Han
[26] = Clearance in rat at 1 mg/kg, iv; assay type: ADME, organism-based; parameters: dose 1 mg/kg, route intravenous; conditions: Wistar Han, in vivo
[27] = tested on: Rattus norvegicus; test: Concentration in rat brain at 10 mg/kg, po after 1 hrs; assay type: ADME, organism-based, Wistar Han; parameters: dose 10 mg/kg, route oral; conditions: in vivo
[28] = Plasma concentration in rat at 10 mg/kg, po after 0.16 hrs; assay type: ADME, organism-based; parameters: dose 10 mg/kg, route oral; conditions: Wistar Han
[29] = Plasma concentration in rat at 10 mg/kg, po after 1 hrs; assay type: ADME, organism-based; parameters: dose 10 mg/kg, route oral; conditions: Wistar Han
[30] = Plasma concentration in rat at 1 mg/kg, iv after 6 hrs; assay type: ADME, organism-based; parameters: dose 1 mg/kg, route intravenous; conditions: Wistar Han
[31] = Terminal half life in rat at 1 mg/kg, iv; assay type: ADME, organism-based; parameters: dose 1 mg/kg, route intravenous; conditions: Wistar Han, in vivo, read-out: beta t1/2 (converted)
[32] = tested on: Rattus norvegicus; test: Concentration in rat brain at 10 mg/kg, po after 2 hrs; assay type: ADME, organism-based, Wistar Han; parameters: dose 10 mg/kg, route oral; conditions: in vivo
[33] = tested on: Rattus norvegicus; test: Concentration in rat brain at 3 mg/kg, po after 0.16 hrs; assay type: ADME, organism-based, Wistar Han; parameters: dose 3 mg/kg, route oral; conditions: in vivo
[34] = Plasma concentration in rat at 10 mg/kg, po after 0.5 hrs; assay type: ADME, organism-based; parameters: dose 10 mg/kg, route oral; conditions: Wistar Han
[35] = Aqueous solubility at pH 6.8 and 25 degC; assay type: physicochemical; conditions: aqueous medium
[36] = tested on: Rattus norvegicus; test: Concentration in rat brain at 10 mg/kg, po after 0.16 hrs; assay type: ADME, organism-based, Wistar Han; parameters: dose 10 mg/kg, route oral; conditions: in vivo
[37] = Cmax in rat plasma at 3 mg/kg, po; assay type: ADME, organism-based; parameters: dose 3 mg/kg, route oral; conditions: Wistar Han
[38] = Volume of distribution in rat at 1 mg/kg, iv; assay type: ADME, organism-based; parameters: dose 1 mg/kg, route intravenous; conditions: Wistar Han, in vivo, read-out: Vdss

- Tmax [1]: 0.5 h
- bioavailability [2]: 75%
- Activity [3]: Dose-dependent effect
- concentration at 6 h [4]: 3220 nM
- Ct [5]: 351 pmol/g
- concentration at 0.16 h [6]: 2200 nM
- Ct [7]: 199 pmol/g
- concentration at 0.5 h [8]: 599 nM
- half-life [9]: 3.5 h
- Ct [10]: 205 pmol/g
- Papp [11]: 4.37 ×10⁻⁶ cm/s
- Ct [12]: 951 pmol/g
- ED50 [13]: 2.6 mg/kg
- Ct [14]: < 25 pmol/g
- concentration at 24 h [15]: 53 nM
- Ct [16]: 1258 pmol/g
- Ct [17]: 1042 pmol/g
- concentration at 1 h [18]: 1530 nM
- Ct [19]: 1364 pmol/g
- concentration at 1 h [20]: 1330 nM
- concentration at 4 h [21]: 1910 nM
- Tmax [22]: 4 h
- Ct [23]: 211 pmol/g
- Tmax [24]: 4 h
- concentration at 24 h [25]: 106 nM
- clearance [26]: 5.25 mL/min/kg
- Ct [27]: 522 pmol/g
- concentration at 0.16 h [28]: 71 nM
- concentration at 1 h [29]: 2680 nM
- concentration at 6 h [30]: 488 nM
- half-life [31]: 3.48 h
- Ct [32]: 1424 pmol/g
- Ct [33]: 32 pmol/g
- concentration at 0.5 h [34]: 1460 nM
- solubility [35]: 0.8 µg/mL (≈ 2.09 µM)
- Ct [36]: 16.4 pmol/g
- Cmax [37]: 1910 nM
- Vd [38]: 1.55 L/kg
SMILES: Cc1nc2cc(C(C)C)c(-c3ccc(Cl)c(OCC4CC4)c3)cc2c(=O)[nH]1
